Data as given in PubChem BioAssay AID2060619 (Molecular Pharmacology Branch, DTP, NCI, 2025).

Test system: 323965-272-R-J2-PDC complex spheroid viability
Assay: Anticancer human tumor 323965-272-R-J2-PDC patient-derived pancreatic carcinoma cell line growth inhibition [CLK]
Conditions: for IC50: curve of first compound; for viability, T/C: stronger effect = lower value
In short: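 Multi-cell-type spheroids combined patient-derived tumor cells with HUVEC endothelial cells and human mesenchymal stem cells. Paired agents were dosed in half-log steps down from about clinical Cmax, or from 10 microM where Cmax was unknown.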

[1] = second compound 0.0316 µM, first compound 0.0316 µM
[2] = second compound 0.0316 µM, first compound 0.1 µM
[3] = second compound 0.0316 µM, first compound 0.316 µM
[4] = second compound 0.0316 µM, first compound 1 µM
[5] = second compound 0.0316 µM, first compound 3.16 µM
[6] = second compound 0.0316 µM, first compound 10 µM
[7] = second compound 0.1 µM, first compound 0.0316 µM
[8] = second compound 0.1 µM, first compound 0.1 µM
[9] = second compound 0.1 µM, first compound 0.316 µM
[10] = second compound 0.1 µM, first compound 1 µM
[11] = second compound 0.1 µM, first compound 3.16 µM
[12] = second compound 0.1 µM, first compound 10 µM
[13] = second compound 0.316 µM, first compound 0.0316 µM
[14] = second compound 0.316 µM, first compound 0.1 µM
[15] = second compound 0.316 µM, first compound 0.316 µM
[16] = second compound 0.316 µM, first compound 1 µM
[17] = second compound 0.316 µM, first compound 3.16 µM
[18] = second compound 0.316 µM, first compound 10 µM
[19] = second compound 1 µM, first compound 0.0316 µM
[20] = second compound 1 µM, first compound 0.1 µM
[21] = second compound 1 µM, first compound 0.316 µM
[22] = second compound 1 µM, first compound 1 µM
[23] = second compound 1 µM, first compound 3.16 µM
[24] = second compound 1 µM, first compound 10 µM
[25] = second compound 3.16 µM, first compound 0.0316 µM
[26] = second compound 3.16 µM, first compound 0.1 µM
[27] = second compound 3.16 µM, first compound 0.316 µM
[28] = second compound 3.16 µM, first compound 1 µM
[29] = second compound 3.16 µM, first compound 3.16 µM
[30] = second compound 3.16 µM, first compound 10 µM
[31] = second compound 10 µM, first compound 0.0316 µM
[32] = second compound 10 µM, first compound 0.1 µM
[33] = second compound 10 µM, first compound 0.316 µM
[34] = second compound 10 µM, first compound 1 µM
[35] = second compound 10 µM, first compound 3.16 µM
[36] = second compound 10 µM, first compound 10 µM
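Note: spheroids exposed to agents for seven days before readout.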
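Throughout, for viability, T/C: percent of DMSO vehicle control wells so 100% = untreated growth.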

Work on C#Cc1c(F)ccc2cc(O)cc(-c3ncc4c(N5CC6CCC(C5)N6)nc(OCC56CCCN5CC(F)C6)nc4c3F)c12 (centres undefined) + CNC(=O)c1ccc(Nc2nc(OC3CCCC3)c3c(-c4ccc5nc(C)oc5c4)c[nH]c3n2)c(OC)c1 yielded an IC50 (second compound 0.0316 µM) of over 10000 nM, an IC50 (second compound 0.1 µM) of 2630 nM and an IC50 (second compound 0.316 µM) of 633 nM. For the same compound, the IC50 (second compound 1 µM) was under 31.6 nM, the IC50 (second compound 3.16 µM) was under 31.6 nM and the IC50 (second compound 10 µM) was under 31.6 nM. The viability, T/C [1] was 92.6%, the viability, T/C [2] was 88.8% and the viability, T/C [3] was 98.8%. It also gave a viability, T/C [4] of 74.3%, a viability, T/C [5] of 62.6% and a viability, T/C [6] of 51.4%. It also gave a viability, T/C [7] of 75%, a viability, T/C [8] of 77.9% and a viability, T/C [9] of 62.5%. The viability, T/C [10] was 58.7%, the viability, T/C [11] was 47.8% and the viability, T/C [12] was 38.6%. It also gave a viability, T/C [13] of 58.9%, a viability, T/C [14] of 59.8% and a viability, T/C [15] of 51.9%. The viability, T/C [16] was 49.3%, the viability, T/C [17] was 35.8% and the viability, T/C [18] was 32.3%. The viability, T/C [19] was 43.2%, the viability, T/C [20] was 37.7% and the viability, T/C [21] was 42.4%. For the same compound, the viability, T/C [22] was 39.3%, the viability, T/C [23] was 30.8% and the viability, T/C [24] was 23.2%. It also gave a viability, T/C [25] of 36.5%, a viability, T/C [26] of 43.9% and a viability, T/C [27] of 36.8%. The viability, T/C [28] was 33.5%, the viability, T/C [29] was 26% and the viability, T/C [30] was 20.2%. It also gave a viability, T/C [31] of 39.6%, a viability, T/C [32] of 38.2% and a viability, T/C [33] of 38.1%. It also gave a viability, T/C [34] of 29.8%, a viability, T/C [35] of 25.7% and a viability, T/C [36] of 19.6%.

C=C(F)C(=O)N1CCN(c2nc(OCC3CCCN3C)nc3c2CCN(c2cccc4cccc(Cl)c24)C3)CC1CC#N (centres undefined) + CNC(=O)c1ccc(Nc2nc(OC3CCCC3)c3c(-c4ccc5nc(C)oc5c4)c[nH]c3n2)c(OC)c1 gave an IC50 (second compound 0.0316 µM) of 7910 nM, an IC50 (second compound 0.1 µM) of 31.6 nM and an IC50 (second compound 0.316 µM) of under 31.6 nM. The IC50 (second compound 1 µM) was under 31.6 nM, the IC50 (second compound 3.16 µM) was under 31.6 nM and the IC50 (second compound 10 µM) was under 31.6 nM. For the same compound, the viability, T/C [1] was 69.7%, the viability, T/C [2] was 49.6% and the viability, T/C [3] was 52.8%. For the same compound, the viability, T/C [4] was 78%, the viability, T/C [5] was 85.2% and the viability, T/C [6] was 17.7%. For the same compound, the viability, T/C [7] was 47.7%, the viability, T/C [8] was 40.4% and the viability, T/C [9] was 39.6%. The viability, T/C [10] was 48.5%, the viability, T/C [11] was 64% and the viability, T/C [12] was 9.35%. For the same compound, the viability, T/C [13] was 36.1%, the viability, T/C [14] was 28.4% and the viability, T/C [15] was 32.9%. The viability, T/C [16] was 33.4%, the viability, T/C [17] was 45.2% and the viability, T/C [18] was 1.42%. It also gave a viability, T/C [19] of 25.8%, a viability, T/C [20] of 22% and a viability, T/C [21] of 25.6%. For the same compound, the viability, T/C [22] was 27.8%, the viability, T/C [23] was 31% and the viability, T/C [24] was 0.63%. For the same compound, the viability, T/C [25] was 26.2%, the viability, T/C [26] was 20.6% and the viability, T/C [27] was 22.1%. It also gave a viability, T/C [28] of 23.6%, a viability, T/C [29] of 28.9% and a viability, T/C [30] of 0.56%. For the same compound, the viability, T/C [31] was 23.2%, the viability, T/C [32] was 20.8% and the viability, T/C [33] was 21.2%. It also gave a viability, T/C [34] of 28.3%, a viability, T/C [35] of 24.8% and a viability, T/C [36] of 0.31%.
